Measurements from patent US12252469B2, “Crystalline forms of (E)-N-hydroxy-3-(1-(phenylsulfonyl)indolin-5-yl)acrylamide” (ANBOGEN THERAPEUTICS INC., priority 2023, dated 2025).

Key:
[1] = Long-term stability test of Type A powder; format: physicochemical; conditions: 25±2° C./60±5% RH
Protocol: (§1) Furthermore, a long-term stability test and an accelerated stability test of Type A (in the form of powder) are executed, and the results thereof are shown in Table 19 and Table 20, respectively. More specifically, for the long-term stability test, the packaging and storage condition: package in double PE bags with silica gel in an aluminum bag and in a paper drum; sample quantity: 0.6 g; temperature: 25±2° C.; % relative humidity: 60±5%; frequency of analysis: 0, 1, 2, 3, 6, 9, 12, 18, 24, 36, 48 and 60 months; duration: 60 months. As for the accelerated stability test, the packaging and storage condition: package in double PE bags with silica gel in an aluminum bag and in a paper drum; sample quantity: 0.6 g; temperature: 40±2° C.; % relative humidity: 75±5%; frequency of analysis: 0, 1, 2, 3 and 6 months; duration: 6 months.

[2] = Accelerated stability test of Type A powder; format: physicochemical; conditions: 40±2° C./75±5% RH
Protocol: as §1

[3] = Competitive slurry, inter-conversion of Type A and Type B; format: physicochemical; conditions: t-Butanol and t-Butanol/H2O, RT; water activity calculated from KF by COSMOlogic
[4] = Heating experiment of Type A (XRPD); format: physicochemical
[5] = Solid stability evaluation for 1/2/4 weeks;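 note: Solid-state physical and chemical stability tracked by XRPD for form, KF for water content, and HPLC for purity and assay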
Protocol: Type A/B were stored under the conditions of 60° C., 25° C./60% RH, 25° C./92.5% RH and 40° C./75% RH for 1/2/4 weeks for solid stability evaluation. Amorphous was stored under the conditions of 25° C./60% RH and 40° C./75% RH for 1/2/4 weeks for solid stability evaluation. The physical and chemical stability were evaluated by X-ray powder diffraction (XRPD), thermo gravimetric analysis (TGA)/Karl Fischer (KF), differential scanning calorimetry (DSC)/modulated differential I scanning calorimetry (mDSC), high performance liquid chromatography (HPLC) purity and assay, respectively.
XRPD, TGA, DSC and KF in this example are under the same conditions with those described in Example 2.
Agilent 1260 were utilized and detailed chromatographic conditions are listed in

[6] = all storage conditions, 4 weeks

Appearance ([1]; 0 months): Pale white powder | Assay (HPLC) (98.0%~102.0%) (anhydrous basis) ([1]; 0 months): 101.6% | Related substance (HPLC) ABT-301 dimer (NMT 0.5%) ([1]; 0 months): 0 a/a % | Related substance (HPLC) Individual unknown Impurity (NMT 0.4%) ([1]; 0 months): 0.03% | Related substance (HPLC) Total Impurities (NMT 1.0%) ([1]; 0 months): 0.1% | Water content (KF) (NMT 4.0%) ([1]; 0 months): 2.6% | Appearance ([1]; 1 month): Pale white powder | Assay (HPLC) (98.0%~102.0%) (anhydrous basis) ([1]; 1 month): 100.3% | Related substance (HPLC) ABT-301 dimer (NMT 0.5%) ([1]; 1 month): 0 a/a % | Related substance (HPLC) Individual unknown Impurity (NMT 0.4%) ([1]; 1 month): 0.05% | Related substance (HPLC) Total Impurities (NMT 1.0%) ([1]; 1 month): 0.1% | Water content (KF) (NMT 4.0%) ([1]; 1 month): 2.6% | Appearance ([1]; 2 months): Pale white powder | Assay (HPLC) (98.0%~102.0%) (anhydrous basis) ([1]; 2 months): 100.6% | Related substance (HPLC) ABT-301 dimer (NMT 0.5%) ([1]; 2 months): 0 a/a % | Related substance (HPLC) Individual unknown Impurity (NMT 0.4%) ([1]; 2 months): 0.05% | Related substance (HPLC) Total Impurities (NMT 1.0%) ([1]; 2 months): 0.1% | Water content (KF) (NMT 4.0%) ([1]; 2 months): 2.6% | Appearance ([1]; 3 months): Pale white powder | Assay (HPLC) (98.0%~102.0%) (anhydrous basis) ([1]; 3 months): 101.4% | Related substance (HPLC) ABT-301 dimer (NMT 0.5%) ([1]; 3 months): 0 a/a % | Related substance (HPLC) Individual unknown Impurity (NMT 0.4%) ([1]; 3 months): 0.07% | Related substance (HPLC) Total Impurities (NMT 1.0%) ([1]; 3 months): 0.1% | Water content (KF) (NMT 4.0%) ([1]; 3 months): 2.6% | Appearance ([1]; 6 months): Pale white powder | Assay (HPLC) (98.0%~102.0%) (anhydrous basis) ([1]; 6 months): 100.2% | Related substance (HPLC) ABT-301 dimer (NMT 0.5%) ([1]; 6 months): 0 a/a % | Related substance (HPLC) Individual unknown Impurity (NMT 0.4%) ([1]; 6 months): 0.05% | Related substance (HPLC) Total Impurities (NMT 1.0%) ([1]; 6 months): 0.1% | Water content (KF) (NMT 4.0%) ([1]; 6 months): 2.6% | Appearance ([1]; 9 months): Pale white powder | Assay (HPLC) (98.0%~102.0%) (anhydrous basis) ([1]; 9 months): 100.6% | Related substance (HPLC) ABT-301 dimer (NMT 0.5%) ([1]; 9 months): 0 a/a % | Related substance (HPLC) Individual unknown Impurity (NMT 0.4%) ([1]; 9 months): 0.06% | Related substance (HPLC) Total Impurities (NMT 1.0%) ([1]; 9 months): 0.1% | Water content (KF) (NMT 4.0%) ([1]; 9 months): 2.9% | Appearance ([1]; 12 months): Pale white powder | Assay (HPLC) (98.0%~102.0%) (anhydrous basis) ([1]; 12 months): 100.4% | Related substance (HPLC) ABT-301 dimer (NMT 0.5%) ([1]; 12 months): 0 a/a % | Related substance (HPLC) Individual unknown Impurity (NMT 0.4%) ([1]; 12 months): 0.09% | Related substance (HPLC) Total Impurities (NMT 1.0%) ([1]; 12 months): 0.2% | Water content (KF) (NMT 4.0%) ([1]; 12 months): 2.6% | Appearance ([1]; 18 months): Pale white powder | Assay (HPLC) (98.0%~102.0%) (anhydrous basis) ([1]; 18 months): 100.0% | Related substance (HPLC) ABT-301 dimer (NMT 0.5%) ([1]; 18 months): 0 a/a % | Related substance (HPLC) Individual unknown Impurity (NMT 0.4%) ([1]; 18 months): 0.07% | Related substance (HPLC) Total Impurities (NMT 1.0%) ([1]; 18 months): 0.1% | Water content (KF) (NMT 4.0%) ([1]; 18 months): 2.8% | Appearance ([1]; 24 months): Pale white powder | Assay (HPLC) (98.0%~102.0%) (anhydrous basis) ([1]; 24 months): 99.8% | Related substance (HPLC) ABT-301 dimer (NMT 0.5%) ([1]; 24 months): 0 a/a % | Related substance (HPLC) Individual unknown Impurity (NMT 0.4%) ([1]; 24 months): 0.03% | Related substance (HPLC) Total Impurities (NMT 1.0%) ([1]; 24 months): 0.1% | Water content (KF) (NMT 4.0%) ([1]; 24 months): 2.7% | Appearance ([1]; 36 months): Pale wlite powder | Assay (HPLC) (98.0%~102.0%) (anhydrous basis) ([1]; 36 months): 100.1% | Related substance (HPLC) ABT-301 dimer (NMT 0.5%) ([1]; 36 months): 0 a/a % | Related substance (HPLC) Individual unknown Impurity (NMT 0.4%) ([1]; 36 months): 0.08% | Related substance (HPLC) Total Impurities (NMT 1.0%) ([1]; 36 months): 0.1% | Water content (KF) (NMT 4.0%) ([1]; 36 months): 2.6% | Appearance ([1]; 48 months): Pale white powder | Assay (HPLC) (98.0%~102.0%) (anhydrous basis) ([1]; 48 months): 100.4% | Related substance (HPLC) ABT-301 dimer (NMT 0.5%) ([1]; 48 months): 0 a/a % | Related substance (HPLC) Individual unknown Impurity (NMT 0.4%) ([1]; 48 months): 0.08% | Related substance (HPLC) Total Impurities (NMT 1.0%) ([1]; 48 months): 0.1% | Water content (KF) (NMT 4.0%) ([1]; 48 months): 2.6% | Appearance ([1]; 60 months): Pale white powder | Assay (HPLC) (98.0%~102.0%) (anhydrous basis) ([1]; 60 months): 100.5% | Related substance (HPLC) Individual unknown Impurity (NMT 0.4%) ([1]; 60 months): 0.08% | Related substance (HPLC) Total Impurities (NMT 1.0%) ([1]; 60 months): 0.1% | Water content (KF) (NMT 4.0%) ([1]; 60 months): 2.6% | Appearance ([2]; 0 months): Pale white powder | Assay (HPLC) (98.0%~102.0%) (anhydrous basis) ([2]; 0 months): 101.6% | Related substance (HPLC) ABT-301 dimer (NMT 0.5%) ([2]; 0 months): 0.03 a/a % | Related substance (HPLC) Individual unknown Impurity (NMT 0.4%) ([2]; 0 months): 0.03% | Related substance (HPLC) Total Impurities (NMT 1.0%) ([2]; 0 months): 0.08% | Water content (KF) (NMT 4.0%) ([2]; 0 months): 2.6% | Appearance ([2]; 1 month): Pale white powder | Assay (HPLC) (98.0%~102.0%) (anhydrous basis) ([2]; 1 month): 100.2% | Related substance (HPLC) ABT-301 dimer (NMT 0.5%) ([2]; 1 month): 0.03 a/a % | Related substance (HPLC) Individual unknown Impurity (NMT 0.4%) ([2]; 1 month): 0.05% | Related substance (HPLC) Total Impurities (NMT 1.0%) ([2]; 1 month): 0.12% | Water content (KF) (NMT 4.0%) ([2]; 1 month): 2.6% | Appearance ([2]; 2 months): Pale white powder | Assay (HPLC) (98.0%~102.0%) (anhydrous basis) ([2]; 2 months): 101.2% | Related substance (HPLC) ABT-301 dimer (NMT 0.5%) ([2]; 2 months): 0.03 a/a % | Related substance (HPLC) Individual unknown Impurity (NMT 0.4%) ([2]; 2 months): 0.03% | Related substance (HPLC) Total Impurities (NMT 1.0%) ([2]; 2 months): 0.09% | Water content (KF) (NMT 4.0%) ([2]; 2 months): 2.6% | Appearance ([2]; 3 months): Pale white powder | Assay (HPLC) (98.0%~102.0%) (anhydrous basis) ([2]; 3 months): 101.8% | Related substance (HPLC) ABT-301 dimer (NMT 0.5%) ([2]; 3 months): 0.03 a/a % | Related substance (HPLC) Individual unknown Impurity (NMT 0.4%) ([2]; 3 months): 0.06% | Related substance (HPLC) Total Impurities (NMT 1.0%) ([2]; 3 months): 0.11% | Water content (KF) (NMT 4.0%) ([2]; 3 months): 2.6% | Appearance ([2]; 6 months): Pale white powder | Assay (HPLC) (98.0%~102.0%) (anhydrous basis) ([2]; 6 months): 99.8% | Related substance (HPLC) ABT-301 dimer (NMT 0.5%) ([2]; 6 months): 0.03 a/a % | Related substance (HPLC) Individual unknown Impurity (NMT 0.4%) ([2]; 6 months): 0.06% | Related substance (HPLC) Total Impurities (NMT 1.0%) ([2]; 6 months): 0.13% | Water content (KF) (NMT 4.0%) ([2]; 6 months): 2.6% | water activity at which the form was obtained in competitive slurry [3]: ≥ 0.37 | form after heating (XRPD) ([4]; heated to 100° C. and cooled to RT): no form change | form after heating (XRPD) ([4]; heated to 122° C./130° C. and cooled to RT): converted to a new form, named as Type B | Assay ([5]; 25° C./60% RH, 1 week): 96.4% | Form (XRPD) ([5]; 25° C./60% RH, 1 week): Type A | HPLC purity ([5]; 25° C./60% RH, 1 week): 99.85 Area % | Assay ([5]; 25° C./60% RH, 2 weeks): 94.7% | Form (XRPD) ([5]; 25° C./60% RH, 2 weeks): Type A | HPLC purity ([5]; 25° C./60% RH, 2 weeks): 99.83 Area % | Assay ([5]; 25° C./60% RH, 4 weeks): 96.4% | Form (XRPD) ([5]; 25° C./60% RH, 4 weeks): Type A | HPLC purity ([5]; 25° C./60% RH, 4 weeks): 99.84 Area % | KF (water content) ([5]; 25° C./60% RH, 4 weeks): 2.8030% | Assay ([5]; 40° C./75% RH, 1 week): 96.6% | Form (XRPD) ([5]; 40° C./75% RH, 1 week): Type A | HPLC purity ([5]; 40° C./75% RH, 1 week): 99.84 Area % | Assay ([5]; 40° C./75% RH, 2 weeks): 95.6% | Form (XRPD) ([5]; 40° C./75% RH, 2 weeks): Type A | HPLC purity ([5]; 40° C./75% RH, 2 weeks): 99.84 Area % | Assay ([5]; 40° C./75% RH, 4 weeks): 96.1% | Form (XRPD) ([5]; 40° C./75% RH, 4 weeks): Type A | HPLC purity ([5]; 40° C./75% RH, 4 weeks): 99.85 Area % | KF (water content) ([5]; 40° C./75% RH, 4 weeks): 4.1509% | Assay ([5]; 60° C., 1 week): 96.2% | Form (XRPD) ([5]; 60° C., 1 week): Type A | HPLC purity ([5]; 60° C., 1 week): 99.83 Area % | Assay ([5]; 60° C., 2 weeks): 95.0% | Form (XRPD) ([5]; 60° C., 2 weeks): Type A | HPLC purity ([5]; 60° C., 2 weeks): 99.76 Area % | Assay ([5]; 60° C., 4 weeks): 95.7% | Form (XRPD) ([5]; 60° C., 4 weeks): Type A | HPLC purity ([5]; 60° C., 4 weeks): 99.82 Area % | KF (water content) ([5]; 60° C., 4 weeks): 4.3786% | Assay ([5]; Initial): 95.6% | Form (XRPD) ([5]; Initial): Type A | HPLC purity ([5]; Initial): 99.84 Area % | KF (water content) ([5]; Initial): 2.8220% | Assay ([5]; […], 1 week): 96.3% | Form (XRPD) ([5]; […], 1 week): Type A | HPLC purity ([5]; […], 1 week): 99.85 Area % | Assay ([5]; […], 2 weeks): 95.6% | Form (XRPD) ([5]; […], 2 weeks): Type A | HPLC purity ([5]; […], 2 weeks): 99.84 Area % | Assay ([5]; […], 4 weeks): 96.5% | Form (XRPD) ([5]; […], 4 weeks): Type A | HPLC purity ([5]; […], 4 weeks): 99.85 Area % | KF (water content) ([5]; […], 4 weeks): 3.1154% | form change after solid stability [5, 6]: no form change
Compound: O=C(/C=C/c1ccc2c(c1)CCN2S(=O)(=O)c1ccccc1)NO [Type A, (E)-N-hydroxy-3-(1-(phenylsulfonyl)indolin-5-yl) acrylamide]
HPLC purity change after solid stability [5, 6]: no form change, or obvious HPLC purity change
